Values of other authors as cited in patent US11135214B2, “Methods for enhancing the bio availability and exposure of a voltage-gated potassium channel opener” (priority 2018, dated 2021).

Experiments:
[1] = test system: neural membrane excitability; details: Ziemann et al. 2015; Ossemann et al. 2016; cited from earlier work
[2] = FDA Approved Labeling Text for Potiga; Harris and Murphy 2011; cited from earlier work
[3] = Prescott and Evans 2014; cited from earlier work
TEP components = details: TMS-EEG, Premoli et al. 2016; cited from earlier work

SMILES | motor threshold (at rest and under active muscular contraction) [1] | food effect on bioavailability and exposure after oral administration [2] | black-box warnings after long term use [3] | P180 component (TEP components) | amplitude of the N45 (TEP components)
CCOC(=O)Nc1ccc(NCc2ccc(F)cc2)cc1N [retigabine] | increased | lack of food effect | discoloration of skin, lips, nails and retinal pigmentary changes | – | –
Nc1nnc(-c2cccc(Cl)c2Cl)c(N)n1 [lamotrigine] | increased | – | – | suppressed | increased
NC(=O)N1c2ccccc2C=Cc2ccccc21 [carbamazepine] | increased | – | – | – | –
CC[C@@H](C(N)=O)N1CCCC1=O [levetiracetam] | – | – | – | suppressed | increased
